One series concerns LIXC-004. Nature of the series: Cell proliferation assay: Acumen. The conditions noted are these: Homo sapiens, 168 h, 7 days, read-out: Abs IC50 growth inhibition. Type of series: cell-based. As for the experimental part:
(§1) Compound screening and comparison of the antiproliferative effect of NV651 and sorafenib were performed by Shanghai ChemPartner Co., Ltd. (Shanghai, China). Cells were seeded in a 96-well plate at the following concentrations: LIXC-003 400 cells/well, LIXC-004 1000 cells/well, LIXC-086 5000 cells/well, LIXC-066 1250 cells/well, LIXC-012 2000 cells/well, LIXC-006 1250 cells/well, HEPG2 1000 cells/well, HUH7 2000 cells/well and Hep3B2.1-7-Luc 1000 cells/well. Cells were treated with either sorafenib or NV651 at 0.004, 0.011, 0.034, 0.103, 0.309, 0.926, 2.778, 8.333, 25 µM or an equivalent volume with DMSO.
(§2) After 7 days, cells were trypsinized and collected. Fifty microliters of cell suspension were added to 50 µL of 2-µM Calcein AM (Invitrogen, Cat# C3099, Waltham, MA, USA) diluted in HBSS and placed in a black-walled 96-well plate. The plate was left for 30 min at room temperature, followed by a scan with Acumen eX3.
(§3) Growth inhibition for direct cell counting (%) by Acumen was calculated as:(1) 100−100∗Experimental count−Blank/DMSO count −Blank

In series [1] the test system is HUH7. Nature of the series: Cell proliferation assay: Acumen. Type of series: cell-based. The conditions noted are these: Homo sapiens, Huh-7, 168 h, 7 days, read-out: Abs IC50 growth inhibition. As for the experimental part: as §1, §2, §3
Another series relates to LIXC-003. Nature of the series: Cell proliferation assay: Acumen. It is filed as cell-based. The conditions noted are these: Homo sapiens, 168 h, 7 days, read-out: Abs IC50 growth inhibition. On the procedure: as §1, §2, §3
A further series has as its system LIXC-006. Nature of the series: Cell proliferation assay: Acumen. It is filed as cell-based. The conditions noted are these: Homo sapiens, 168 h, 7 days, read-out: Abs IC50 growth inhibition. As for the experimental part: as §1, §2, §3
For another series, the system named is LIXC-012. Nature of the series: Cell proliferation assay: Acumen. The conditions noted are these: Homo sapiens, 168 h, 7 days, read-out: Abs IC50 growth inhibition. It is filed as cell-based. As for the experimental part:
as §1, §2, §3

Series [2] deals with HEPG2. Nature of the series: Cell proliferation assay: Acumen. It is filed as cell-based. The conditions noted are these: Homo sapiens, 168 h, 7 days, read-out: Abs IC50 growth inhibition. As for the experimental part:
as §1, §2, §3

For the next series, the system named is PLC/PRF/5. Nature of the series: Clonogenic assay. Type of series: cell-based, human. The conditions noted are these: continuously treated 14 days, crystal violet. On the procedure:
(§4) Cells were seeded at 2500/mL and, starting 24 h later, provided with fresh medium and NV651 every day for the following 14 days. Then, colonies were stained with crystal violet, which was subsequently dissolved in 10% acetic acid and quantified by a spectrophotometer by absorbance at 595 nm.

The subject of a further series is Huh-7D12. Nature of the series: Clonogenic assay. Type of series: cell-based, human. The conditions noted are these: continuously treated 14 days, crystal violet. On the procedure:
as §4

The test system of a further series is Hep3B. Nature of the series: Clonogenic assay. It is filed as cell-based, human. The following applies: continuously treated 14 days, crystal violet. On the procedure:
as §4

Series [3] relates to HEPG2. Nature of the series: Clonogenic assay. Type of series: cell-based, human. The conditions noted are these: continuously treated 14 days, crystal violet. On the procedure: as §4
The target in another series is CypA (Homo sapiens, UniProt P62937). Nature of the series: PPIase activity assay (chymotrypsin-coupled). It is filed as biochemical. The conditions noted are these: free-cell assay; Cyp equilibrated 1 h at 5 °C with inhibitor; read-out: absolute IC50, PPIase activity CypA. As for the experimental part:
(§5) The PPIase activity of CypA, CypB, CypD and Cyp40 was determined by following the rate of hydrolysis of N-succinyl-Ala-Ala-Pro-Phe-p-nitroanilide by chymotrypsin, a digestive enzyme that only hydrolyzes the trans form of the peptide. Therefore, the hydrolysis of the cis form, the concentration of which is maximized by using a stock dissolved in trifluoroethanol containing 470-mM LiCl, is only possible with the isomerization from the cis to the trans form. […] The reaction was started with the peptide addition, and the change in absorbance was monitored spectrophotometrically at a 6-s interval for 6 min. The blank rates of hydrolysis (in the absence of Cyps) were subtracted from the rates in the presence of Cyps. The initial rates of the enzymatic reaction were analyzed by a first-order regression analysis of the time course of the change in absorbance.

For another series, the target named is CypB (Homo sapiens, UniProt P23284). Nature of the series: PPIase activity assay (chymotrypsin-coupled). Type of series: biochemical. The conditions noted are these: free-cell assay; Cyp equilibrated 1 h at 5 °C with inhibitor; read-out: absolute IC50, PPIase activity CypB. As for the experimental part:
as §5

In another series the target is CypD (Homo sapiens, UniProt P30405). Nature of the series: PPIase activity assay (chymotrypsin-coupled). Type of series: biochemical. The conditions noted are these: free-cell assay; Cyp equilibrated 1 h at 5 °C with inhibitor; read-out: absolute IC50, PPIase activity CypD. As for the experimental part:
as §5

Another series has as its target Cyp40 (Homo sapiens, UniProt Q08752). Nature of the series: PPIase activity assay (chymotrypsin-coupled). The conditions noted are these: free-cell assay; Cyp equilibrated 1 h at 5 °C with inhibitor; read-out: absolute IC50, PPIase activity Cyp40. It is filed as biochemical. On the procedure: as §5
The test system of series [4] is HUH7. Nature of the series: Mitotic quantification by immunofluorescence. The following applies: 10 or 100 nM, 48 h. It is filed as cell-based, human. On the procedure: HUH7 cells were seeded at a concentration of 4.5 × 10^4 cells/well in a 6-well plate containing coverslips, followed by the treatment of NV651 at 10 or 100 nM or the equivalent volume in DMSO. After 48 h, samples were fixed with 4% PFA (Histolab, Cat# 02176, Gothenburg, Sweden) and permeabilized with 0.1% Triton x-100 (Sigma-Aldrich, Cat# X100-500ML, St. Louis, MO, USA) diluted in PBS. Samples were stained with 1-µg/mL of rat anti-tubulin (Abcam, Cat# ab6161, Cambridge, UK) for one hour at room temperature. Lastly, DAPI and secondary antibody goat anti-rat IgG AF546 conjugate (Invitrogen, Cat# A11081, Waltham, MA, USA) were added. Coverslips were mounted on glass slides adding fluorescent mounting media (Dako, Agilent, Santa Clara, CA, USA). Thirteen pictures at 10× were taken with a Zeiss Confocal microscope and quantified for the number of mitotic cells in relation to the total number of cells with ImageJ.

Series [5] in a line: Pharmacokinetics single oral administration, blood and liver. It is filed as in vivo. The following applies: CD1 mice, 10 mg/kg PO; for Tmax: male, mouse. As for the experimental part:
These experiments were performed by Shanghai ChemPartner Co., Ltd. (Shanghai, China) following the guidance described above. Twelve CD1 male mice with a weight between 28–30 g were purchased from SLAC Laboratory Animal Co. Ltd. (Shanghai, China). NV651 was diluted in 5% ethanol, 5% Cremophor EL and 90% saline. A single 10-mg/kg dose of NV651 was given orally (PO). […] At the selected time points, 30 µL of the blood samples were taken via face glass insert or cardiac puncture and placed into K2EDTA tubes. Tissues were terminal-collected at the designated time points. Thirty microliters of blood or liver samples were mixed with 100-µL Pierce Acetonitrile (ACN, Thermo Fisher Scientific, Waltham, MA, USA) containing 20-ng/mL IS (702) used as the internal standard. An aliquot of 10-µL supernatant was injected for LC-MS/MS analysis using LCMSMS-003 (API4000).

On the set-up of series [6]: method as in PMID 31717385. The following applies: cited from earlier work.

Results on one molecule are retold here after publication PMC8234462, “Novel Cyclophilin Inhibitor Decreases Cell Proliferation and Tumor Growth in Models of Hepatocellular Carcinoma” (Cancers, 2021).

Usually IC50 stands for the concentration that inhibits the measured activity by half. The term Tmax denotes the time at which the peak concentration occurs.

Read-outs that look alike come from different tables or passages of the source.

Sequence of CypA (P62937 whole entry): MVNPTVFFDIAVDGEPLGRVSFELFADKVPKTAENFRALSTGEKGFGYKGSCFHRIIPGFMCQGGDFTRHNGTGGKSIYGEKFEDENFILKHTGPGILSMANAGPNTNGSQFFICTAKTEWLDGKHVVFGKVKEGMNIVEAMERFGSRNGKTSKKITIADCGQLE
Sequence of CypB (P23284 34-216): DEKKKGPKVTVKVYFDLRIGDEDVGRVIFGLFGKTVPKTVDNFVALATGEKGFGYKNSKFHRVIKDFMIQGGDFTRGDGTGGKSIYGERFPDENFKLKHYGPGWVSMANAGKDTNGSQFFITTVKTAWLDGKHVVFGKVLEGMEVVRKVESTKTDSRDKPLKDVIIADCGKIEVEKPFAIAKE
Sequence of Cyp40 (Q08752 whole entry): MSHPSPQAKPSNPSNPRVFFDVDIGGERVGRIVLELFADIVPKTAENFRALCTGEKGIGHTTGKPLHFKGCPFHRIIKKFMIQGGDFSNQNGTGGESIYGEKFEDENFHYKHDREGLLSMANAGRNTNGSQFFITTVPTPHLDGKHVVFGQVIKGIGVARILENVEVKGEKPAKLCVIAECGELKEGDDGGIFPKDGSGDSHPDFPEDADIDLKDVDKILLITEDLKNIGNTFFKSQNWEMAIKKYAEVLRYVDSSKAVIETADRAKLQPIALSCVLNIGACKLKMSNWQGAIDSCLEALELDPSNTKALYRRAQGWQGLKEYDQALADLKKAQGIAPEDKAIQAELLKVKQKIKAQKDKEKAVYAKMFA
Sequence of CypD (P30405 30-207): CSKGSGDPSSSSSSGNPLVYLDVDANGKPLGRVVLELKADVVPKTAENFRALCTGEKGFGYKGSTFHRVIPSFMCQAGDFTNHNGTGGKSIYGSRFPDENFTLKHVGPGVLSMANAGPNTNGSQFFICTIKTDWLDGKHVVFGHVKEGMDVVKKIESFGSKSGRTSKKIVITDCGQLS

Regarding `CC(=O)CCC1C(=O)NC(C(C)C)C(=O)NC(Cc2cc(O)cc(F)c2)C(=O)N2CCCC(N2)C(=O)OC(C(C)=CC=CC(=O)OC(C)(C)C)CC=CC=CC(O)C(C)C1O` (stereo not shown) [NV651], the IC50 stood at 4 nM in the series on LIXC-004; 3 nM in the series on HUH7 [1]; 9 nM with LIXC-003; 8 nM in the series on LIXC-006; 94 nM with LIXC-012; 6.3 nM with HEPG2 [2]. The IC50 on CypA was 0.49 nM; on CypB it was 0.824 nM; on CypD, 0.842 nM; on Cyp40, 0.821 nM. Also, the number of colonies entry with PLC/PRF/5, with Huh-7D12, in the series with Hep3B and in the series on HEPG2 [3] was “reduced the number of colonies” in each case. Also, in the series with HUH7 [4], the “number of mitotic counts” value is recorded as “increase in the number of mitotic counts”. Moreover, the “level in liver relative to blood” value in [5] (24 h after treatment) is “three-fold higher level in the liver than blood”. The Tmax came out at 1 h in series [5] (blood, read-out: Tmax in blood) and 1 h in series [5] (liver, read-out: Tmax in liver). Further, in [6], the immunosuppressant activity result is “no immunosuppressant activity”.
